Laboratory results from ChEMBL document CHEMBL6074660, “Recent advances in peptoids as promising antimicrobial agents to target diverse microbial species” (Eur J Med Chem, 2024).
Numbered stars: 1 amine (or outer) side, 2 acyl side, 3 side chain; on linkers, the order of the positions; unused ones are H or OH. Square brackets hold non-standard residues; d marks the D form. Peptide text beside a SMILES is read from it. dAla(N-(6-guanidinohexyl)) = C[C@@H](NCCCCCCNC(=N)N)C(=O)O; X1 = C[C@@H](C(=O)[*:2])N(CCCCCCN)[*:1]; X2 = C[C@H](C(=O)[*:2])N(CCCCCCN)[*:1]; 2Nal = N[C@@H](Cc1ccc2ccccc2c1)C(=O)O; X5 = C[C@H](C(=O)[*:2])N(CCCCCN)[*:1]; Gly(N-2-aminoethyl) = NCCNCC(=O)O; Nspe = C[C@H](NCC(=O)O)c1ccccc1

Key:
Plasmodium falciparum = test: Antiplasmodial activity against Plasmodium falciparum 3D7 assessed as inhibition of parasite growth; format: functional, organism-based
Leishmania amazonensis [1] = test: Antileishmanial activity against Leishmania amazonensis promastigotes assessed as inhibition of parasite growth at 10 uM incubated for 48 hrs relative to control; format: functional; set-up: scale not given: the % may be the effect or the level left
Leishmania amazonensis [2] = test: Antileishmanial activity against Leishmania amazonensis promastigotes assessed as inhibition of parasite growth at 10 uM incubated for 24 hrs relative to control; format: functional; set-up: scale not given: the % may be the effect or the level left
Leishmania mexicana [3] = test: Antileishmanial activity against Leishmania mexicana promastigotes; format: functional; details: read-out: ED50 (the source's name)
Leishmania mexicana [4] = test: Antileishmanial activity against Leishmania mexicana amastigotes; format: functional; details: read-out: ED50 (the source's name)
[5] = target: C-X-C chemokine receptor type 4 (Homo sapiens, UniProt P61073); test: Inhibition of CXCR4 receptor (unknown origin)
[6] = test system: Human immunodeficiency virus 1; test: Antiviral activity against HIV-1; format: functional, organism-based

Chain of C-X-C chemokine receptor type 4 (P61073 whole entry): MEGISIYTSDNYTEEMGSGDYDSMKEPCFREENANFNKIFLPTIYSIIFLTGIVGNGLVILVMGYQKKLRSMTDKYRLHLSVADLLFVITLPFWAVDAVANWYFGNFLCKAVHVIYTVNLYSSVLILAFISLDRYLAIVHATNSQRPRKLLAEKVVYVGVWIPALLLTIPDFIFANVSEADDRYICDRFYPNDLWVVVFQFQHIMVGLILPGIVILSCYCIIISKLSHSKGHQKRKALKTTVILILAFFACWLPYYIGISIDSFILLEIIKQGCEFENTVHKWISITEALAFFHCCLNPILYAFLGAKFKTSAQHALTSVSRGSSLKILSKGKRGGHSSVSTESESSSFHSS

SMILES | IC50 (Plasmodium falciparum) | further results
CN(C)c1ccc(C(=O)N(CC(=O)NCc2ccccc2)Cc2ccc(C(=O)NO)cc2)cc1 | 9 nM | –
Cc1ccccc1C(=O)N(CC(=O)NC(C)(C)C)Cc1ccc(C(=O)NO)cc1 | 110 nM | –
COc1ccccc1C(=O)N(CC(=O)NC(C)(C)C)Cc1ccc(C(=O)NO)cc1 | 250 nM | –
CC(C)c1ccc(C(=O)N(CC(=O)NCc2ccccc2)Cc2ccc(C(=O)NO)cc2)cc1 | 5 nM | –
Cc1cc(C)cc(C(=O)N(CC(=O)NCc2ccc(F)cc2)Cc2ccc(C(=O)NO)cc2)c1 | 80 nM | –
Cc1cccc(CNC(=O)CN(Cc2ccc(C(=O)NO)cc2)C(=O)c2cc(C)cc(C)c2)c1 | 120 nM | –
CC(C)c1ccc(C(=O)N(CC(=O)NC2CCCCC2)c2ccc(C(=O)NO)cc2)cc1 | 570 nM | –
CN(C)c1ccc(C(=O)N(Cc2ccc(C(=O)NO)cc2)C(C)(C)C(=O)NC2CCCCC2)cc1 | 90 nM | –
Cc1cc(C)cc(C(=O)N(CC(=O)NC2CCCCC2)c2ccc(C(=O)NO)cc2)c1 | 77700 nM | –
CNC(=O)CN(Cc1ccc(C(=O)NO)cc1)C(=O)c1ccccc1C | 70 nM | –
Cc1ccc(CNC(=O)CN(Cc2ccc(C(=O)NO)cc2)C(=O)c2cc(C)cc(C)c2)cc1 | 42 nM | –
Cc1cc(C)cc(C(=O)N(CC(=O)NCc2ccc(Cl)cc2)Cc2ccc(C(=O)NO)cc2)c1 | 90 nM | –
COc1ccc(CNC(=O)CN(Cc2ccc(C(=O)NO)cc2)C(=O)c2cc(C)cc(C)c2)cc1 | 33 nM | –
Cc1cc(C)cc(C(=O)N(CC(=O)NCc2ccc(C(C)(C)C)cc2)Cc2ccc(C(=O)NO)cc2)c1 | 110 nM | –
CNC(=O)CN(Cc1ccc(C(=O)NO)cc1)C(=O)c1cc(C)cc(C)c1 | 50 nM | –
Cc1cc(C)cc(CNC(=O)CN(Cc2ccc(C(=O)NO)cc2)C(=O)c2cc(C)cc(C)c2)c1 | 70 nM | –
CN(C)c1ccc(C(=O)N(Cc2ccc(C(=O)NO)cc2)C(C(=O)NC2CCCCC2)c2ccccc2)cc1 (stereo unspecified) | 390 nM | –
Cc1cc(C)cc(C(=O)N(CC(=O)NCc2cccnc2)Cc2ccc(C(=O)NO)cc2)c1 | 70 nM | –
CC(C)(C)c1ccc(C(=O)N(CC(=O)NCc2ccccc2)Cc2ccc(C(=O)NO)cc2)cc1 | 8 nM | –
Cc1cc(C)cc(C(=O)N(CC(=O)NCc2ccccc2)Cc2ccc(C(=O)NO)cc2)c1 | 37 nM | –
CCCCN(C(C)=O)C(C(=O)NCS(=O)(=O)c1ccc(C)cc1)c1ccccc1 (stereo unspecified) | – | Activity (Leishmania amazonensis [1]): 87.87%; Activity (Leishmania amazonensis [2]): 66.83%
C[C@@H](c1ccccc1)N(CC(N)=O)C(=O)CN(C(=O)CN(CCN)C(=O)CN(C(=O)CN(C(=O)CN(CCN)C(=O)CN(C(=O)CN(C(=O)CN(CCN)C(=O)CN(C(=O)CN(C(=O)CNCCN)[C@@H](C)c1ccccc1)[C@@H](C)c1ccccc1)[C@@H](C)c1ccccc1)[C@@H](C)c1ccccc1)[C@@H](C)c1ccccc1)[C@@H](C)c1ccccc1)[C@@H](C)c1ccccc1 (H-[Gly(N-2-aminoethyl)][Nspe][Nspe][Gly(N-2-aminoethyl)][Nspe][Nspe][Gly(N-2-aminoethyl)][Nspe][Nspe][Gly(N-2-aminoethyl)][Nspe][Nspe]-NH2) | – | EC50 (Leishmania mexicana [3]): 7000 nM; EC50 (Leishmania mexicana [4]): 17000 nM
C[C@H]1C(=O)N[C@@H](CCCNC(=N)N)C(=O)N[C@@H](Cc2ccc3ccccc3c2)C(=O)NCC(=O)N[C@H](Cc2ccc(O)cc2)C(=O)N1CCCCCCN (cyclo([2Nal]G[dY][X1]R)) | – | IC50 [5]: 94000 nM; EC50 [6]: 979000 nM
C[C@@H]1C(=O)N[C@@H](CCCNC(=N)N)C(=O)N[C@@H](Cc2ccc3ccccc3c2)C(=O)NCC(=O)N[C@H](Cc2ccc(O)cc2)C(=O)N1CCCCCCN (cyclo([2Nal]G[dY][X2]R)) | – | IC50 [5]: 300 nM; EC50 [6]: 53000 nM
C[C@@H]1C(=O)N[C@@H](CCCNC(=N)N)C(=O)N[C@@H](Cc2ccc3ccccc3c2)C(=O)NCC(=O)N[C@H](Cc2ccc(O)cc2)C(=O)N1CCCCCN (cyclo([2Nal]G[dY][X5]R)) | – | IC50 [5]: 1600 nM
C[C@@H]1C(=O)N[C@@H](CCCNC(=N)N)C(=O)N[C@@H](Cc2ccc3ccccc3c2)C(=O)NCC(=O)N[C@H](Cc2ccc(O)cc2)C(=O)N1CCCCCCNC(=N)N (cyclo([dY][dAla(N-(6-guanidinohexyl))]R[2Nal]G)) | – | IC50 [5]: 40 nM; EC50 [6]: 29000 nM
